Patent US11773086B2, “Fungal modulators” (TRUSTEES OF BOSTON UNIVERSITY, priority 2020, dated 2023)

Test system: C. auris
Assay: microbe, parasite or virus in culture
Assay type: cell-based, Candida auris
Settings: Candidozyma auris; Etest; read-out: fluconazole MIC in absence of azoffluxin
Protocol: FIGS. 2A-2E illustrate the above-described screening of the BU-CMD which identified azoffluxin as a fluconazole (FLC) potentiator against C. auris. […] Growth, as determined by optical density at 600 nm (OD600), is plotted in the presence of each CMD compound alone on the y-axis and in combination with FLC on the x-axis. Dotted lines represent 7-median absolute deviations from the median for each condition. […] FIG. 2B depicts the synergistic interactions. […] Growth was measured by the OD600 and normalized to the no drug control (see color bar). The fractional inhibitory concentration index (FICI) was calculated to determine the chemical interaction, with a value below 0.5 indicating synergy. […] FIG. 2D depicts FLC Etest strips in the presence and absence of 50 μM azoffluxin. A total of 1×10^6 C. auris cells were added to YPD agar plates, the E-test strip was added, and plates were incubated at 30° C. for 24 hours prior to imaging. FIG. 2. […] Dose-response assay where a two-fold dilution of azoffluxin was titered starting from 50 μM. Indicated titrations have a background concentration of FLC of 32 μg/mL, 4 μg/mL, 0.25 μg/mL, and 0.5 μg/mL for C. auris Ci6684 (Erg11Y132F), C. albicans (SN95), C. glabrata (BG2) or S. cerevisiae (BY4741), respectively. […] Dose response assays were incubated for 48 hours at 30° C. in RPMI. Growth in each well was plotted by the relative optical density to the respective no drug control (See color bar in FIG. 2B).
Compound potency was assessed alone by dose response assays or in combination with another compound by dose-response matrixes in 96-well plates, or 384-well, flat-bottom, microtiter plates (Corning) as previously described. Plates were incubated at 30° C. for the indicated time period. Growth was quantified by measuring OD600 and corrected for medium background. All strains were assessed in biological duplicate experiments with technical duplicates. […] For dose-response matrixes fractional inhibitory concentration index at 90% growth inhibition (FICI90) was calculated as previously described. […]

## OC(Cn1cncn1)(Cn1cncn1)c1ccc(F)cc1F [fluconazole, reference compound]
  MIC: > 256 µg/mL
